Experimental data published in PubChem BioAssay (NCI).
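Test compounds were applied to cells in 96-well plates for 48 hours at 5 doses. TGI: concentration producing complete growth inhibition.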 Where a SMILES comes first, the peptide text is derived from it. The star is where a group is joined. Cbz = O=C(OCc1ccccc1)*; Boc = CC(C)(C)OC(=O)*; OBn = c1ccc(CO*)cc1

Assays:
Test in all cases: DTP human tumour cell line panel, 48 h
MDA-N = system: MDA-N
NCI-H23 lung = system: NCI-H23 lung
IGROV1 ovarian = system: IGROV1 ovarian
U251 CNS = system: U251 CNS
NCI-H460 lung = system: NCI-H460 lung
A498 renal = system: A498 renal
HCT-116 colon = system: HCT-116 colon
NCI-H522 lung = system: NCI-H522 lung
RPMI-8226 leukemia = system: RPMI-8226 leukemia
UACC-62 melanoma = system: UACC-62 melanoma
SN12C renal = system: SN12C renal
DU-145 prostate = system: DU-145 prostate
LOX IMVI melanoma = system: LOX IMVI melanoma
UO-31 renal = system: UO-31 renal

SMILES | TGI (MDA-N) [µM] | TGI (NCI-H23 lung) [µM] | TGI (IGROV1 ovarian) [µM] | TGI (U251 CNS) [µM] | TGI (NCI-H460 lung) [µM] | TGI (A498 renal) [µM] | TGI (HCT-116 colon) [µM] | TGI (NCI-H522 lung) [µM] | TGI (RPMI-8226 leukemia) [µM] | TGI (UACC-62 melanoma) [µM] | TGI (SN12C renal) [µM] | TGI (DU-145 prostate) [µM] | TGI (LOX IMVI melanoma) [µM] | TGI (UO-31 renal) [µM]
COC(=O)[C@@H](COC(=O)/C=C/c1ccc(OC(C)=O)c(OC(C)=O)c1)NC(=O)/C=C/c1ccc(OC(C)=O)c(OC(C)=O)c1 | 50.3 | > 100 | > 100 | > 100 | 47 | > 100 | 39.5 | 35.1 | > 100 | 45.9 | 46.7 | 60.7 | 38.1 | –
COc1cc([C@@H]2c3cc4c(cc3[C@@H](N=Cc3ccc(C(=O)O[C@H]5C[C@H]6OC[C@@]6(OC(C)=O)[C@H]6[C@H](OC(=O)c7ccccc7)[C@]7(O)C[C@H](OC(=O)[C@H](OC(=O)c8ccc(C=N[C@@H]9c%10cc%11c(cc%10[C@@H](c%10cc(OC)c(O)c(OC)c%10)[C@H]%10C(=O)OC[C@@H]%109)OCO%11)cc8)[C@@H](NC(=O)c8ccccc8)c8ccccc8)C(C)=C([C@@H](OC(C)=O)C(=O)[C@]56C)C7(C)C)cc3)C3COC(=O)C32)OCO4)cc(C)c1O (stereo partly specified) | 7.71 | > 50 | > 50 | > 31.6 | > 50 | 29.2 | > 50 | > 50 | > 50 | > 39.2 | > 50 | > 50 | > 50 | –
COC(=O)C1CCCCCCCCCCC12SCCCS2 (stereo unspecified) | > 100 | > 100 | 39.1 | 32.1 | > 100 | 49.7 | 30.2 | 43.5 | – | 59.4 | 31.8 | 39.2 | 35.4 | 38.8
C[C@H]1ON2CCC[C@@H]2[C@@H]1C(=O)N1C2CC3CCC2(CS1(=O)=O)C3(C)C (stereo partly specified) | > 100 | > 100 | > 100 | > 100 | > 100 | > 100 | > 100 | > 100 | – | > 100 | > 100 | > 100 | > 100 | –
COC(=O)C(CCCCNC(=O)OCc1ccccc1)NC(=O)C(CCC(=O)OCc1ccccc1)NC(=O)OC(C)(C)C (stereo unspecified) (Boc-Glu(OBn)-Lys(Cbz)-OMe; configuration not given here) | > 100 | > 100 | > 100 | > 100 | – | 66.5 | > 100 | > 100 | > 100 | > 100 | > 100 | > 100 | > 100 | > 100
CC(=O)/C(=C\n1c(=S)[nH]c2ccc([N+](=O)[O-])cc21)C(=O)Nc1ccccc1C | > 100 | > 100 | > 100 | > 100 | > 100 | > 100 | > 100 | > 100 | > 100 | > 100 | > 100 | > 100 | > 100 | –
CSc1nc2ccccc2c(=O)n1-c1cccc(C)c1 | 72.5 | > 100 | > 100 | > 100 | > 100 | 92 | > 100 | > 100 | > 100 | > 100 | > 100 | > 100 | > 100 | –
NC1=NC(=O)[C@H](CSCc2ccccc2)N1C(=O)OCc1ccccc1 | > 100 | > 100 | > 100 | > 100 | > 100 | > 100 | > 100 | > 100 | – | > 100 | > 100 | > 100 | > 100 | > 100
Nc1nc(SCC(=O)c2ccccc2)nc2nc3c(c(-c4ccccc4)c12)CCCC3 | > 100 | > 100 | – | > 100 | > 100 | 42.9 | > 100 | > 100 | > 100 | > 100 | > 100 | > 100 | 61.7 | > 100
CC(=O)Nc1ccccc1S(=O)(=O)c1c(-c2c(C)c(Cl)c(C)c(Cl)c2C)noc1C | > 100 | > 100 | > 100 | 95.5 | > 100 | > 100 | > 100 | > 100 | > 100 | > 100 | > 100 | > 100 | – | > 100
O=C1Nc2ccccc2/C1=C\c1c(Cl)[nH]c2ccccc12 | 0.486 | 16.1 | 1.35 | 9.15 | 2.59 | 4.78 | – | 3.54 | 3.34 | 9.75 | 17.5 | 20 | 6.15 | 6.84
ClCc1nc2cc(Cl)ccc2o1 | 21.4 | 24.6 | 3.29 | 9.13 | 31.6 | – | 20.4 | 3.37 | 4.07 | 23.1 | 20.9 | 14.1 | 6.74 | 2.54
CC(C)Cn1cnnc1NS(=O)(=O)c1cc(C(=O)NN)c(Cl)cc1S | > 10 | > 10 | > 10 | > 10 | > 10 | > 10 | > 10 | > 10 | > 10 | > 10 | > 10 | > 10 | > 10 | –
COc1ccc2c(c1)OCC1Cc3cccc(OC)c3OC21 (stereo unspecified) | > 100 | > 100 | > 100 | > 100 | – | > 100 | > 100 | > 100 | > 100 | > 100 | > 100 | > 100 | > 100 | > 100
CC(=O)N(CCc1ccccc1)C(C)(C#N)c1ccccc1 (stereo unspecified) | > 100 | > 100 | > 100 | > 100 | – | > 100 | > 100 | > 100 | > 100 | > 100 | > 100 | > 100 | > 100 | > 100
CCOC(=O)CC(=O)Nc1c(C(=O)OCC)sc2nc(SC)nc(Nc3ccc(OC)c(OC)c3)c12 | > 100 | > 100 | > 100 | 25.1 | – | 82.4 | > 100 | 34.1 | – | > 100 | > 100 | > 100 | > 100 | > 100
